Experimental data reported in ChEMBL document CHEMBL1201862, “PubChem BioAssay data set” (2004).
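Test compounds were applied to cells in 96-well plates for 48 hours at 5 doses. GI50 is the concentration that inhibits growth by half.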 Calls of active or inactive are those of the source. Cut-off read from the data, not from the text of the source: active = GI50 up to about 1.1 µM and inactive = higher.

Legend:
Assay in all cases: NCI-60 cell line screen, 48 h
786-0 = system: 786-0
SK-OV-3 = system: SK-OV-3
EKVX = system: EKVX
MDA-MB-435 = system: MDA-MB-435
CAKI-1 = system: CAKI-1
COLO 205 = system: COLO 205
NCI-H23 = system: NCI-H23
MOLT-4 = system: MOLT-4
SK-MEL-5 = system: SK-MEL-5
U-251 = system: U-251
SW-620 = system: SW-620
LOX IMVI = system: LOX IMVI
NCI-H226 = system: NCI-H226
HL-60 = system: HL-60
MDA-N = system: MDA-N
TK-10 = system: TK-10
K562 = system: K562
PC-3 = system: PC-3
RXF 393 = system: RXF 393
HCC 2998 = system: HCC 2998

Measured: GI50

CC(C)(C)OC(=O)n1cc(C2CNC(=O)C23CCC(=O)N3Cc2ccccc2)c2ccccc21 (stereo not drawn)
inactive: 786-0 24.7 µM | SK-OV-3 26.2 µM | EKVX 22.4 µM | MDA-MB-435 20 µM | CAKI-1 36.9 µM | COLO 205 15.8 µM | NCI-H23 23.2 µM | MOLT-4 36.9 µM | SK-MEL-5 16.9 µM | U-251 18.7 µM | SW-620 33.5 µM | LOX IMVI 19.8 µM | NCI-H226 19.9 µM | HL-60 28.1 µM | MDA-N 28.2 µM | TK-10 17.1 µM | K562 41.1 µM | PC-3 25.6 µM | RXF 393 21.9 µM

N#Cc1c(-c2ccccc2)c(/C=N/c2ccc(F)cc2)c(=O)n2c1[nH]c1ccccc12
inactive: 786-0 24.7 µM | SK-OV-3 36.3 µM | EKVX 19.8 µM | MDA-MB-435 18.4 µM | CAKI-1 13.6 µM | COLO 205 29.8 µM | NCI-H23 37 µM | SK-MEL-5 25.6 µM | HCC 2998 21.2 µM | U-251 46.7 µM | SW-620 29.5 µM | LOX IMVI 23.8 µM | NCI-H226 27.6 µM | MDA-N 10.4 µM | TK-10 20.8 µM | PC-3 28.6 µM | RXF 393 22.5 µM

O/N=C1/Nc2cc(Cl)ccc2C(=S)N2CSCC12 (stereo not drawn)
inactive: 786-0 > 100 µM | SK-OV-3 > 100 µM | EKVX > 100 µM | MDA-MB-435 > 100 µM | CAKI-1 > 100 µM | COLO 205 > 100 µM | MOLT-4 > 100 µM | SK-MEL-5 > 100 µM | HCC 2998 > 100 µM | U-251 > 100 µM | SW-620 > 100 µM | LOX IMVI > 100 µM | NCI-H226 > 100 µM | MDA-N > 100 µM | TK-10 > 100 µM | K562 87.3 µM | PC-3 > 100 µM | RXF 393 > 100 µM

Oc1ccc2c(c1)c1c(n2CCN2CCOCC2)-c2ccccc2CC1
inactive: 786-0 57.8 µM | SK-OV-3 42.2 µM | EKVX 35.5 µM | MDA-MB-435 > 10 µM | CAKI-1 33.7 µM | NCI-H23 27.8 µM | MOLT-4 23.9 µM | U-251 25.6 µM | SW-620 30.1 µM | LOX IMVI 23.6 µM | NCI-H226 30.7 µM | HL-60 42.3 µM | MDA-N 45.4 µM | TK-10 29.4 µM | K562 27.9 µM | PC-3 29.2 µM | RXF 393 29.6 µM

Cc1c(NC(=O)c2cc([N+](=O)[O-])cc([N+](=O)[O-])c2)c(=O)n(-c2ccccc2)n1C
inactive: 786-0 > 100 µM | SK-OV-3 > 100 µM | MDA-MB-435 > 100 µM | CAKI-1 > 100 µM | COLO 205 20.1 µM | NCI-H23 > 100 µM | MOLT-4 > 100 µM | SK-MEL-5 > 100 µM | U-251 > 100 µM | SW-620 > 100 µM | LOX IMVI > 100 µM | NCI-H226 > 100 µM | HL-60 > 100 µM | MDA-N > 100 µM | TK-10 > 100 µM | K562 > 100 µM | PC-3 49.8 µM | RXF 393 > 100 µM

CO/N=C(\C(=O)Nc1cncs1)c1csc(N)n1
inactive: 786-0 > 10 µM | SK-OV-3 > 10 µM | EKVX > 10 µM | MDA-MB-435 > 10 µM | CAKI-1 > 10 µM | COLO 205 > 10 µM | NCI-H23 > 10 µM | MOLT-4 > 10 µM | SK-MEL-5 > 10 µM | HCC 2998 > 10 µM | U-251 > 10 µM | SW-620 > 10 µM | LOX IMVI > 10 µM | MDA-N > 10 µM | TK-10 > 10 µM | K562 > 10 µM | PC-3 > 10 µM

COC(=O)[C@H](Cc1ccccc1)NC(=O)N(CCN(CCC#N)C(=O)N[C@H](C(=O)OC)C(C)C)c1ccccc1
inactive: 786-0 > 100 µM | SK-OV-3 > 100 µM | EKVX > 100 µM | MDA-MB-435 85.3 µM | CAKI-1 > 100 µM | COLO 205 > 100 µM | NCI-H23 > 100 µM | MOLT-4 24.3 µM | SK-MEL-5 52.6 µM | HCC 2998 > 100 µM | U-251 > 100 µM | SW-620 > 100 µM | LOX IMVI > 100 µM | NCI-H226 > 100 µM | MDA-N > 100 µM | TK-10 > 100 µM | PC-3 > 100 µM | RXF 393 > 100 µM

C=C1C(O)C[C@H](OC(C)=O)[C@]2(C)C1C(OC(C)=O)[C@]1(C(C)(C)O)CC(O)C(C)=C1[C@@H](OC(=O)c1ccccc1)C2OC(C)=O (stereo partly drawn)
inactive: 786-0 > 10 µM | SK-OV-3 > 10 µM | EKVX > 10 µM | MDA-MB-435 > 10 µM | CAKI-1 > 10 µM | COLO 205 > 10 µM | NCI-H23 > 10 µM | MOLT-4 > 10 µM | SK-MEL-5 > 10 µM | U-251 > 10 µM | SW-620 > 10 µM | LOX IMVI > 10 µM | NCI-H226 > 10 µM | HL-60 > 10 µM | MDA-N > 10 µM | TK-10 > 10 µM | K562 > 10 µM | PC-3 > 10 µM | RXF 393 > 10 µM
